Experimental data as given in US20050037946A1, “Methods and compositions for treating cardiovascular disease using 1722, 10280, 59917, 85553, 10653, 9235, 21668, 17794, 2210, 6169, 10102, 21061, 17662, 1468, 12282, 6350, 9035, 1820, 23652, 7301, 8925, 8701, 3533, 9462, 9123, 12788, 17729, 65552, 1261, 21476, 33770, 9380, 2569654, 33556, 53656, …” (Millennium Pharmaceuticals, Inc., priority 2003, published 2005).

Key:
[1] = humans; cited from earlier work
RAW 264.7 = conditions: RAW 264.7, through down-regulating the activation of Akt; cited from earlier work
isolated rat arterioles = conditions: compared to basal tone; cited from earlier work
glycine cleavage system = conditions: cited from earlier work
13886 mRNA = 13886 mRNA in aortas of treated rats (TaqMan); type: in vivo; conditions: seven days, vs vehicle treated controls, p<0.005 ANOVA
Description: (§1) This example describes the TaqMan™ procedure. The Taqman™ procedure is a quantitative, reverse transcription PCR-based approach for detecting mRNA. The RT-PCR reaction exploits the 5′ nuclease activity of AmpliTaq Gold™ DNA Polymerase to cleave a TaqMan™ probe during PCR. Briefly, cDNA was generated from the samples of interest, e.g., heart, kidney, liver, skeletal muscle, and various vessels, and used as the starting material for PCR amplification. In addition to the 5′ and 3′ gene-specific primers, a gene-specific oligonucleotide probe (complementary to the region being amplified) was included in the reaction (i.e., the Taqman™ probe). […]
(§2) During the PCR reaction, cleavage of the probe separates the reporter dye and the quencher dye, resulting in increased fluorescence of the reporter. Accumulation of PCR products is detected directly by monitoring the increase in fluorescence of the reporter dye. When the probe is intact, the proximity of the reporter dye to the quencher dye results in suppression of the reporter fluorescence. […]

6169 mRNA = 6169 mRNA in human primary hepatocytes (TaqMan); type: cell-based
Description: as §1, §2

32345 mRNA = 32345 mRNA in HUVECs (TaqMan); type: cell-based, human
Description: as §1, §2

[2] = target: 1722 (Protein Kinase C mu or PKD) (Homo sapiens, UniProt Q15139); conditions: Biochem Pharmacol. 2001; cited from earlier work
1722 (Protein Kinase C mu or PKD), sequence (Q15139 whole entry): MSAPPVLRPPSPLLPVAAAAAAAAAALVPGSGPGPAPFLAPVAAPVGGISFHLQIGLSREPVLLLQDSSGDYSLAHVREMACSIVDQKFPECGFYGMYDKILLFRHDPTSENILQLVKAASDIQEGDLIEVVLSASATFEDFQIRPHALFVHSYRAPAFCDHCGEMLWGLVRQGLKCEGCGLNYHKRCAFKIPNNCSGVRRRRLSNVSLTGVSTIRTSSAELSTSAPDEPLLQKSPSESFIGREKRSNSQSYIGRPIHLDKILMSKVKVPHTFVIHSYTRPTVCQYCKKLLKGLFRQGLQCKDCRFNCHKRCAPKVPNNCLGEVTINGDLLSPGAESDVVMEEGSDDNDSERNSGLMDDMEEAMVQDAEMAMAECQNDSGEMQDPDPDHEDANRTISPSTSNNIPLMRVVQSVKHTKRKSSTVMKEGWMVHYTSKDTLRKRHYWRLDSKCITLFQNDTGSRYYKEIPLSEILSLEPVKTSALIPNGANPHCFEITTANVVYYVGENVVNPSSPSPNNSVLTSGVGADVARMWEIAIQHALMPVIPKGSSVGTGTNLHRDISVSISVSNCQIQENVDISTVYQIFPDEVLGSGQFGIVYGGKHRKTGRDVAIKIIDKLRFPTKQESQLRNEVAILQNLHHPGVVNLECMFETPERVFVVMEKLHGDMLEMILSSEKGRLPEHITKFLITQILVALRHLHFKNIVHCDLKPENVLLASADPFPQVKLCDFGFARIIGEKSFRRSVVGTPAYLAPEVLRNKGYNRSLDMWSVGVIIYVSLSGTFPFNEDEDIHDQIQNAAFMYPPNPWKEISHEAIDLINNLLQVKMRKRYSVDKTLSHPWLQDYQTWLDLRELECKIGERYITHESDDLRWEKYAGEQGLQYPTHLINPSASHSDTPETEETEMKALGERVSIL

3533 mRNA = 3533 mRNA regulation by lipid lowering drugs (TaqMan)
Description: (§3) This example describes the TaqMan™ procedure. The Taqman™ procedure is a quantitative, reverse transcription PCR-based approach for detecting mRNA. The RT-PCR reaction exploits the 5′ nuclease activity of AmpliTaq Gold™ DNA Polymerase to cleave a TaqMan™ probe during PCR. Briefly, cDNA was generated from the samples of interest, e.g., heart, kidney, liver, skeletal muscle, and various vessels, and used as the starting material for PCR amplification. In addition to the 5′ and 3′ gene-specific primers, a gene-specific oligonucleotide probe (complementary to the region being amplified) was included in the reaction (i.e., the Taqman™ probe). The TaqMan™ probe includes the oligonucleotide with a fluorescent reporter dye covalently linked to the 5′ end of the probe (such as FAM (6-carboxyfluorescein), TET (6-carboxy4,7,2′,7′-tetrachlorofluorescein), JOE (6-carboxy-4,5-dichloro-2,7-dimethoxyfluorescein), or VIC) and a quencher dye (TAMRA (6-carboxy-N,N,N′,N′-tetramethylrhodamine) at the 3′ end of the probe.
(§4) During the PCR reaction, cleavage of the probe separates the reporter dye and the quencher dye, resulting in increased fluorescence of the reporter. Accumulation of PCR products is detected directly by monitoring the increase in fluorescence of the reporter dye. When the probe is intact, the proximity of the reporter dye to the quencher dye results in suppression of the reporter fluorescence. During PCR, if the target of interest is present, the probe specifically anneals between the forward and reverse primer sites. The 5′-3′ nucleolytic activity of the AmpliTaq™ Gold DNA Polymerase cleaves the probe between the reporter and the quencher only if the probe hybridizes to the target. The probe fragments are then displaced from the target, and polymerization of the strand continues. The 3′ end of the probe is blocked to prevent extension of the probe during PCR. […] RNA was prepared using the trizol method and treated with DNase to remove contaminating genomic DNA. cDNA was synthesized using standard techniques.

2569654 mRNA = 2569654 mRNA in marmoset models (TaqMan); type: in vivo
Description: as §3, §4

[3] = humans, betaine supplemented diets vs control group; cited from earlier work
1510 mRNA = 1510 mRNA in aortic arches of ApoE knockout mice (TaqMan); type: in vivo; conditions: relative to abdominal aorta, 12 weeks
Description: as §1, §2

966 mRNA = 966 mRNA in aortic arches of mice given captopril (TaqMan); type: in vivo; conditions: given for 6 or 12 weeks
Description: as §1, §2

## CC1=C(/C=C/C(C)=C\C=C\C(C)=C\C(=O)O)C(C)(C)CCC1 [9-cis retinoic acid]
[1]
  lipid profile: increase total cholesterol, ILDL-cholesterol, apoB and triglyceride levels and decrease HDL-cholesterol

## CC1=C(/C=C/C(C)=C/C=C/C(C)=C\C(=O)O)C(C)(C)CCC1 [13-cis retinoic acid]
[1]
  lipid profile: increase total cholesterol, ILDL-cholesterol, apoB and triglyceride levels and decrease HDL-cholesterol

## CCCCCCCCCCCCC/C=C/[C@@H](O)[C@H](CO)NC(C)=O [C(2)-ceramide]
RAW 264.7
  LPS-induced NO production: inhibit

## COc1cc2c(c(OC)c1OC)-c1ccc(OC)c(=O)cc1[C@@H](NC(C)=O)CC2 [Colchicine]
Isolated rat arterioles
  vasoconstriction: 33.9%

## NCCS [Cysteamine]
Glycine cleavage system
  inhibition of the glycine cleavage system: potent inhibitor

## COC(=O)[C@@H](N)CCCNC(=N)N[N+](=O)[O-] [L-NAME]
13886 mRNA
  expression of 13886 mRNA: significantly down-regulated

## CC[C@H](C)C(=O)O[C@H]1CCC=C2C=C[C@H](C)[C@H](CC[C@@H]3C[C@@H](O)CC(=O)O3)[C@H]21 [Mevastatin]
6169 mRNA
  6169 mRNA upregulated: 2.4 fold
32345 mRNA
  32345 mRNA expression: upregulated

## Oc1ccc(C=Cc2cc(O)cc(O)c2)cc1 [Resveratrol]
[2]
  autophosphorylation of 1722: inhibit

## N[C@@H](Cc1cc(I)c(Oc2ccc(O)c(I)c2)c(I)c1)C(=O)O [T3]
3533 mRNA
  3533 mRNA expression: downregulated
2569654 mRNA
  2569654 mRNA expression: upregulated

## C[N+](C)(C)CC(=O)[O-] [betaine, trimethylglycine]
[3]
  plasma homocysteine concentration: decrease
  total and LDL cholesterol concentration: small but significant increase

## C[C@H](CS)C(=O)N1CCC[C@H]1C(=O)O [captopril]
1510 mRNA
  elevated expression of 1510 mRNA in aortic arches of ApoE knockout mice: blocked
966 mRNA
  upregulation of 966 mRNA in mice aortic arches: inhibited
